Assay results reported in patent publication US20030087014A1, “Enhanced thermal inactivation of pathogen in a nutriment by acidulant” (Mionix Corp., priority 2001, published 2003).

Test system: human skin
Test: Contact of acidic solution with human skin and nose
Settings: solution with a pH of less than 0.5

## O=S(=O)(O)O [sulfuric acid]
  Irritation of hand put into the solution: an irritation would occur within a relatively short span of time
